Experimental data: patent publication US10988477B2 (Merck Patent GmbH, priority 2018, dated 2021)

Biological target: GCN2 kinase (Homo sapiens, UniProt Q9P2K8)
Assay: GCN2 enzyme inhibition assay (Transcreener ADP2 fluorescence polarization)
Format: biochemical
Details: Enzyme activity for compounds of Formula IV; Ki(app), 280 μM ATP, 25° C.
Procedure: Compounds were screened for their ability to inhibit GCN2 kinase activity using a Transcreener® ADP^2 fluorescence polarization assay that detects ADP levels (BellBrook Labs, WI). Assays were carried out in a buffer consisting of 25 mM Tris-HCl (pH 7.5), 50 mM NaCl, 10 mM MgCl2 and 1 mM DTT. Final substrate concentrations were 280 μM ATP and 200 μM peptidic substrate ([…]-OH [(RS)7], Bachem, Switzerland). Assays were carried out at 25° C. in the presence of a (typical) final concentration of 4 nM GCN2 kinase. An assay buffer containing GCN2 kinase and (RS)7 was prepared. 4.7 μL of this stock solution was placed per well of a black, low volume, 384-well microtitre plate (e.g. catalogue number 3676, Corning Inc., NY). To this was added […] of DMSO containing serial dilutions of the test compound (typical final concentrations of test compound were 0 to 8 μM). The plate was incubated for 10 minutes at 25° C. prior to the addition of 4.7 μL of ATP stock buffer to initiate the enzyme reaction. The reaction was allowed to proceed for 1 hour at 25° C., prior to the addition of 10 μL detection buffer (consisting of appropriate concentrations of ADP^2 antibody and ADP Alexa633 tracer in 1× stop and detect buffer as supplied by BellBrook Labs). […] Percentage inhibition of enzyme activity was then calculated at each compound dose. IC50 and Ki(app) (using known assay and kinetic parameters) values were calculated from percentage inhibition data using a non-linear, tight-binding algorithm. All data analysis was undertaken using the Screener® software package (Genedata, Switzerland).

Sequence of GCN2 kinase (Q9P2K8 whole entry): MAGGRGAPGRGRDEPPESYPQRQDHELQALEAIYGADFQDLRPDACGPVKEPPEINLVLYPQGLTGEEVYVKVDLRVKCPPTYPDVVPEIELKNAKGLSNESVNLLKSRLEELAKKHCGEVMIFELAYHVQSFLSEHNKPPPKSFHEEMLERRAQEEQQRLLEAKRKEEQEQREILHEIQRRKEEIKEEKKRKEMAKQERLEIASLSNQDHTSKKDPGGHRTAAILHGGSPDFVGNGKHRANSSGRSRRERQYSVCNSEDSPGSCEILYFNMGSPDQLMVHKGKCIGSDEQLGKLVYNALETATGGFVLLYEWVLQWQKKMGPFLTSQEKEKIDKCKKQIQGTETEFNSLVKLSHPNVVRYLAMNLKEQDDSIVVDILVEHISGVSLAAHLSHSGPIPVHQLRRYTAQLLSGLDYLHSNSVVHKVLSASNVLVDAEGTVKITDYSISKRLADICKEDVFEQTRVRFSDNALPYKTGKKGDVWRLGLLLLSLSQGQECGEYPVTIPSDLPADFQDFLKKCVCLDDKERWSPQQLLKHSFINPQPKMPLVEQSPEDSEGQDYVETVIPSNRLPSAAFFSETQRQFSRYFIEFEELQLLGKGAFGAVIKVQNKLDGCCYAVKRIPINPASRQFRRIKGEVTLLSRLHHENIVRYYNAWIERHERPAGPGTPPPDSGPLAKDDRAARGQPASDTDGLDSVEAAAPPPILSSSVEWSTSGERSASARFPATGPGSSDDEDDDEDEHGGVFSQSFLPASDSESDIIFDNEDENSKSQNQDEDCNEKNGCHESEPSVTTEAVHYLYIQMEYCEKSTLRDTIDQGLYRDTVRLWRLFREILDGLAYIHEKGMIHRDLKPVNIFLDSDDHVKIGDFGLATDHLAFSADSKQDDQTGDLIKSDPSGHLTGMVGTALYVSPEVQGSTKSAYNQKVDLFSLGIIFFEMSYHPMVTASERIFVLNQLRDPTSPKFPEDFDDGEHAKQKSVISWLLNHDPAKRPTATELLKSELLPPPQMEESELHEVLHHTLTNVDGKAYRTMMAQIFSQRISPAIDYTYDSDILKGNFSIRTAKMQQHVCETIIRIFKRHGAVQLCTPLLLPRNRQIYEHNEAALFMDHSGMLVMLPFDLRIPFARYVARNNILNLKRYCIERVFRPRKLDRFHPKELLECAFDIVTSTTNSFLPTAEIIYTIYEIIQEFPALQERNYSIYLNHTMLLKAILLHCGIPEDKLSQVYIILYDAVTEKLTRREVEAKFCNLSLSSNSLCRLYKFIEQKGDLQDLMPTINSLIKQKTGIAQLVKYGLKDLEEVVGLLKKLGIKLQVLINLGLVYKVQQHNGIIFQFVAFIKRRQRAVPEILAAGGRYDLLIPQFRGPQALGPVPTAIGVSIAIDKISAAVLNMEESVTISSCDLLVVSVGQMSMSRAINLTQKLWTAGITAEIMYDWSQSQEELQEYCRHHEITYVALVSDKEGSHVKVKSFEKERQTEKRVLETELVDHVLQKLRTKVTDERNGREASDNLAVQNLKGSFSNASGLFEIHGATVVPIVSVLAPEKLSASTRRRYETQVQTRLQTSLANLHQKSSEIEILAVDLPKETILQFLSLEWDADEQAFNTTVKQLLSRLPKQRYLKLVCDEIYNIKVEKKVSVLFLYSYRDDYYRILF

Row | SMILES | Ki
1 | CC1CN(c2ccnc(-c3cnc4cnc(C(F)(F)F)cn34)n2)C(C)(C)C1 (stereo not shown) [IV-610, 6-(Trifluoromethyl)-3-(4-(2,2,4-trimethylpyrrolidin-1-yl)pyrimidin-2-yl)imidazo[1,2-a]pyrazine] | 100 to 1000 nM
2 | CC1CN(c2nc(-c3cnc4cnc(C(F)(F)F)cn34)ncc2F)CC(c2cn[nH]c2)O1 (single isomer, unassigned) [IV-335, 4-(5-Fluoro-2-(6-(trifluoromethyl)imidazo[1,2-a]pyrazin-3-yl)pyrimidin-4-yl)-2-methyl-6-(1H-pyrazol-4-yl)morpholine] | 10 to 100 nM
3 | CC(=O)N1CCN(c2ccnc(-c3cnc4cnc(-c5c[nH]nc5C)cn34)n2)CC1 [IV-300, 1-(4-(2-(6-(3-Methyl-1H-pyrazol-4-yl)imidazo[1,2-a]pyrazin-3-yl)pyrimidin-4-yl)piperazin-1-yl)ethan-1-one] | 100 to 1000 nM
4 | O=C(Nc1cccnc1)[C@@H]1CCCN(c2ccnc(-c3cnc4cnc(C(F)(F)F)cn34)n2)C1 [IV-738] | > 1000 nM
5 | FC(F)(F)c1cn2c(-c3nccc(N4CCNC(c5cn[nH]c5)C4)n3)cnc2cn1 (single isomer, unassigned) [IV-231, 3-(4-(3-(1H-Pyrazol-4-yl)piperazin-1-yl)pyrimidin-2-yl)-6-(trifluoromethyl)imidazo[1,2-a]pyrazine] | 100 to 1000 nM
6 | CC(=O)N1CCN(c2ccc(C(F)(F)F)c(-c3cnc4cnc(C(N)=O)cn34)n2)CC1 [IV-700, 3-(6-(4-acetylpiperazin-1-yl)-3-(trifluoromethyl)pyridin-2-yl)imidazo[1,2-a]pyrazine-6-carboxamide] | 100 to 1000 nM
7 | O=C1CCCC2CN(c3ccnc(-c4cnc5cnc(Cl)cn45)n3)CCN12 (single isomer, unassigned) [IV-294, 2-(2-(6-Chloroimidazo[1,2-a]pyrazin-3-yl)pyrimidin-4-yl)octahydro-6H-pyrido[1,2-a]pyrazin-6-one] | 10 to 100 nM
8 | CC1(C)CN(c2ccnc(-c3cnc4cnc(C(F)(F)F)cn34)n2)CCO1 [IV-531, 2,2-Dimethyl-4-(2-(6-(trifluoromethyl)imidazo[1,2-a]pyrazin-3-yl)pyrimidin-4-yl)morpholine] | 100 to 1000 nM
9 | CC1CC(C)C(C)N(c2ccnc(-c3cnc4cnc(C(F)(F)F)cn34)n2)C1 (stereo not shown) [IV-643, 6-(Trifluoromethyl)-3-(4-(2,3,5-trimethylpiperidin-1-yl)pyrimidin-2-yl)imidazo[1,2-a]pyrazine] | 100 to 1000 nM
10 | NC(=O)CC1CCN(c2ccnc(-c3cnc4cnc(C(F)(F)F)cn34)n2)CC1 [IV-605, 2-(1-(2-(6-(Trifluoromethyl)imidazo[1,2-a]pyrazin-3-yl)pyrimidin-4-yl)piperidin-4-yl)acetamide] | 100 to 1000 nM
11 | FC(F)(F)c1cn2c(-c3nccc(N4CCC(c5c[nH]cn5)C4)n3)cnc2cn1 (stereo not shown) [IV-456, 3-(4-(3-(1H-Imidazol-4-yl)pyrrolidin-1-yl)pyrimidin-2-yl)-6-(trifluoromethyl)imidazo[1,2-a]pyrazine] | 100 to 1000 nM
12 | CC1C(c2cn[nH]c2)OCCN1c1ccnc(-c2cnc3cnc(C#N)cn23)n1 (single isomer, unassigned) [IV-290, 3-(4-(3-Methyl-2-(1H-pyrazol-4-yl)morpholino)pyrimidin-2-yl)imidazo[1,2-a]pyrazine-6-carbonitrile] | < 10 nM
13 | [O-][S+]1CCN(c2ccnc(-c3cnc4cnc(C(F)F)cn34)n2)CC1 [IV-80, 4-(2-(6-(Difluoromethyl)imidazo[1,2-a]pyrazin-3-yl)pyrimidin-4-yl)thiomorpholine 1-oxide] | 100 to 1000 nM
14 | Cn1cc(NC(=O)[C@H]2CCCN(c3ccnc(-c4cnc5cnc(C(F)(F)F)cn45)n3)C2)cn1 [IV-739] | > 1000 nM
15 | O=C1NCCC12CCN(c1ccnc(-c3cnc4cnc(C(F)(F)F)cn34)n1)C2 (stereo not shown) [IV-533, 7-(2-(6-(Trifluoromethyl)imidazo[1,2-a]pyrazin-3-yl)pyrimidin-4-yl)-2,7-diazaspiro[4.4]nonan-1-one] | 100 to 1000 nM
16 | NS(=O)(=O)c1cc2c(s1)CCN(c1ccnc(-c3cnc4cnc(C(F)(F)F)cn34)n1)C2 [IV-715] | 100 to 1000 nM
17 | Cc1cc(N2CCN(C(N)=O)CC2)nc(-c2cnc3cnc(C(N)=O)cn23)n1 [IV-196, 3-(4-(4-Carbamoylpiperazin-1-yl)-6-methylpyrimidin-2-yl)imidazo[1,2-a]pyrazine-6-carboxamide] | 10 to 100 nM
18 | CS(=O)(=O)NC1CCCN(c2ccnc(-c3cnc4cnc(C(N)=O)cn34)n2)C1 (stereo not shown) [IV-250, 3-(4-(3-(Methylsulfonamido)piperidin-1-yl)pyrimidin-2-yl)imidazo[1,2-a]pyrazine-6-carboxamide] | 100 to 1000 nM
19 | CS(C)(=O)=N[C@@H]1C[C@H](c2cn[nH]c2)CN(c2ccnc(-c3cnc4cnc(C(F)(F)F)cn34)n2)C1 (racemic) [IV-395] | 10 to 100 nM
20 | FC(F)(F)c1cn2c(-c3nccc(N4CC(CN5CCC5)CC(c5cn[nH]c5)C4)n3)cnc2cn1 (stereo not shown) [IV-681, 3-(4-(3-(Azetidin-1-ylmethyl)-5-(1H-pyrazol-4-yl)piperidin-1-yl)pyrimidin-2-yl)-6-(trifluoromethyl)imidazo[1,2-a]pyrazine] | 10 to 100 nM
21 | Cc1[nH]ncc1C1NC(C)CN(c2ccnc(-c3cnc4cnc(Cl)cn34)n2)C1C (single isomer, unassigned) [IV-282, 6-Chloro-3-(4-(2,5-dimethyl-3-(5-methyl-1H-pyrazol-4-yl)piperazin-1-yl)pyrimidin-2-yl)imidazo[1,2-a]pyrazine] | < 10 nM
22 | CC(=O)N(C)C1CCN(c2ccnc(-c3cnc4cnc(C(N)=O)cn34)n2)C1 (stereo not shown) [IV-267, 3-(4-(3-(N-Methylacetamido)pyrrolidin-1-yl)pyrimidin-2-yl)imidazo[1,2-a]pyrazine-6-carboxamide] | 100 to 1000 nM
23 | O=C(N[C@H]1CCCN(c2ccnc(-c3cnc4cnc(C(F)(F)F)cn34)n2)C1)C1CC1 [IV-732] | > 1000 nM
24 | CC1CCCN(c2ccnc(-c3cnc4cnc(C(F)(F)F)cn34)n2)C1C (stereo not shown) [IV-519, 3-(4-(2,3-Dimethylpiperidin-1-yl)pyrimidin-2-yl)-6-(trifluoromethyl)imidazo[1,2-a]pyrazine] | 10 to 100 nM
25 | CC(C)(O)C1CCN(c2ccnc(-c3cnc4cnc(C(F)(F)F)cn34)n2)C1 (stereo not shown) [IV-520, 2-(1-(2-(6-(Trifluoromethyl)imidazo[1,2-a]pyrazin-3-yl)pyrimidin-4-yl)pyrrolidin-3-yl)propan-2-ol] | 100 to 1000 nM
26 | FC(F)(F)c1cn2c(-c3nccc(N4CCCC5(CCOC5)C4)n3)cnc2cn1 (stereo not shown) [IV-496, 7-(2-(6-(Trifluoromethyl)imidazo[1,2-a]pyrazin-3-yl)pyrimidin-4-yl)-2-oxa-7-azaspiro[4.5]decane] | 100 to 1000 nM

Same assay, conditions: compounds of Formula II; 280 μM ATP, 4 nM GCN2 kinase

Row | SMILES | Ki
27 | CC1CC(CS(C)(=O)=O)C(C)N(c2cc(-c3cnc4ccc(C(F)F)nn34)ncn2)C1 (stereo not shown) [II-587, 6-(Difluoromethyl)-3-[6-[2,5-dimethyl-3-(methylsulfonylmethyl)-1-piperidyl]pyrimidin-4-yl]imidazo[1,2-b]pyridazine] | < 10 nM
28 | CCS(C)(=O)=NC1CC(C)CN(c2cc(-c3cnc4ccc(C(F)F)nn34)ncn2)C1 (single isomer, unassigned) [II-640, ((1-(6-(6-(Difluoromethyl)imidazo[1,2-b]pyridazin-3-yl)pyrimidin-4-yl)-5-methylpiperidin-3-yl)imino)(ethyl)(methyl)-λ^6-sulfanone] | 10 to 1000 nM
29 | CN1CCN(c2cc(-c3cnc4ccc(C(F)F)nn34)ncn2)CC1CCO (stereo not shown) [II-514, 2-(4-(6-(6-(Difluoromethyl)imidazo[1,2-b]pyridazin-3-yl)pyrimidin-4-yl)-1-methylpiperazin-2-yl)ethan-1-ol] | 10 to 1000 nM
30 | CC(NS(C)(=O)=O)C1CCCN(c2cc(-c3cnc4ccc(C(F)F)nn34)ncn2)C1 (stereo not shown) [II-619, N-(1-(1-(6-(6-(Difluoromethyl)imidazo[1,2-b]pyridazin-3-yl)pyrimidin-4-yl)piperidin-3-yl)ethyl)methanesulfonamide] | 10 to 1000 nM
31 | CC1C(CNS(C)(=O)=O)N(C(C)C)CCN1c1cc(-c2cnc3ccc(C(F)F)nn23)ncn1 (stereo not shown) [II-507, N-((4-(6-(6-(Difluoromethyl)imidazo[1,2-b]pyridazin-3-yl)pyrimidin-4-yl)-1-isopropyl-3-methylpiperazin-2-yl)methyl)methanesulfonamide] | < 10 nM
32 | CC1CC(CS(C)(=O)=O)C(C)N(c2cc(-c3cnc4ccc(C(F)F)nn34)ncn2)C1 (single isomer, unassigned) [II-626, 6-(difluoromethyl)-3-[6-[2,5-dimethyl-3-(methylsulfonylmethyl)-1-piperidyl]pyrimidin-4-yl]imidazo[1,2-b]pyridazine] | < 10 nM

Same assay, conditions: compounds of Formula IV; 280 μM ATP, 4 nM GCN2 kinase

Row | SMILES | IC50
33 | Cc1n[nH]cc1[C@H]1CN(c2ccnc(-c3cnc4cnc(C(F)(F)F)cn34)n2)C[C@H](C)O1 [IV-761, (2S,6S)-2-methyl-6-(3-methyl-1H-pyrazol-4-yl)-4-(2-(6-(trifluoromethyl)imidazo[1,2-a]pyrazin-3-yl)pyrimidin-4-yl)morpholine] | 10 to 1000 nM
34 | C[C@@H]1C[C@H](N=S(C)(C)=O)CN(c2ccnc(-c3cnc4cnc(Cl)cn34)n2)C1 [IV-773, (((3S,5R)-1-(2-(6-chloroimidazo[1,2-a]pyrazin-3-yl)pyrimidin-4-yl)-5-methylpiperidin-3-yl)imino)dimethyl-16-sulfanone] | 10 to 1000 nM
